Test system: SMMC-7721 cells
Experiment: MTT colorimetry, inhibition of hepatocellular carcinoma SMMC-7721 cell activity
Type: cell-based
Conditions: 48 hours
Description: Test for Inhibition of Cancer Cell Activity by Compound of Embodiment 19 (Taking Hepatocellular Carcinoma SMMC-7721 Cells as an embodiment):
SMMC-7721 cells are cultured in DMEM high sugar medium containing 10% fetal bovine serum in a saturated humidity incubator at 37° C. and 5% CO2. The culture medium is changed every two days and passaged every 3-4 days. The drug is prepared as 1 mmol/L and 10 mmol/L storage solution using DMSO as solvent, when used, the concentration is diluted into 1 μmol/L and 10 μmol/L with culture medium, using DMSO as negative control group and gemcitabine as positive control group to act on cells in logarithmic growth phase.
Cells in logarithmic growth phase are digested with 0.025% pancreatin, and then digested with DMEM high sugar medium containing 10% fetal bovine serum. After centrifugation, the cells are suspended in DMEM high sugar medium containing 10% fetal bovine serum. Take a 96-well plate and add 200 μL of sterile water seal to each hole around the plate to ensure saturated humidity in the experiment. In the middle six rows, 100 μL of cell suspension are added respectively, and the cell concentration is about 3.5×10^4 cells/mL. The last row is blank control group, and the same volume of complete culture medium is added. In 37° C., 5% CO2 saturated humidity incubator culture for 24 hours, cells completely adhere to the wall, remove the culture medium, add complete culture medium containing different drugs, 200 μL per hole. The blank control group is added with 200 μL of complete culture medium, and the culture is continued. After 24 hours, the drug effect is observed and photographed under an inverted microscope. After 48 hours, the drug effect is also observed and photographed under an inverted microscope. Then the supernatant is removed. 100 μL of 0.5 mg/mL MTT solution is added to each well. After 4 hours of continuous culture, purple crystal formazan is generated. 100 μL of 10% SDS is added to each well. After 12 hours of culture in an incubator at 37° C., the OD value is measured with an enzyme reader at A571 wavelength. Repeat 6 wells for each sample concentration, and calculate the inhibition rate by taking the average value.

Question: How did the “Inhibition Rate (%)” value (1 μmol/L) turn out when `COc1cc(OC)c2c(=O)c(OCCCN(C)C3CCN(C(=S)SCc4ccc(Cl)cc4)CC3)c(-c3cc(OC)c(OC)c(OC)c3)oc2c1` [Compound A1, 4-chlorobenzyl 4-((3-((5,7-dimethoxy-4-oxo-2-(3,4,5-trimethoxyphenyl)-4H-chromene-3-yl)oxy)propyl)(methyl)amino)piperidine-1-dithiocarboxylic acid] was run?
Answer: The value was 21.82 ± 2.34 %.

Question: And the “Inhibition Rate (%)” value (10 μmol/L)?
Answer: The value was 95.51 ± 4.16 %.

Question: `COc1cc(OC)c2c(=O)c(OCCCCN(C)C3CCN(C(=S)SCc4ccccc4C)CC3)c(-c3cc(OC)c(OC)c(OC)c3)oc2c1` [Compound A15, 2-methylbenzyl-4-((4-((5,7-dimethoxy-4-oxo-2-(3,4,5-trimethoxyphenyl)-4H-benzopyran-3-yl)oxy)butyl) (methyl)amino) piperidine-1-dithiocarboxylic acid] was tested. Which “Inhibition Rate (%)” value (1 μmol/L) did it give?
Answer: Its value is 16.38 ± 3.82 %.

Question: What about the “Inhibition Rate (%)” value (10 μmol/L) of the same molecule?
Answer: Its value is 99.52 ± 1.12 %.

Question: With `COc1cc(OC)c2c(=O)c(OCCCN(C)C3CCN(C(=S)SCc4ccc(Cl)nc4)CC3)c(-c3cc(OC)c(OC)c(OC)c3)oc2c1` [Compound A9, (6-chloropyridine-3-yl) methyl 4-((3-((5,7-dimethoxy-4-oxo-2-(3,4,5-trimethoxyphenyl)-4H-benzopyran-3-yl)oxygen)propyl) (methyl)amino) piperidine-1-dithiocarboxylic acid] as the molecule, how does the “Inhibition Rate (%)” value (1 μmol/L) read?
Answer: The value was 18.83 ± 3.15 %.

Question: What about the “Inhibition Rate (%)” value (10 μmol/L) of the same molecule?
Answer: The value was 99.76 ± 1.06 %.

Question: Which “Inhibition Rate (%)” value (1 μmol/L) does the source give for `COc1cc(OC)c2c(=O)c(OCCCN(C)C3CCN(C(=S)SCc4ccc(Cl)cc4Cl)CC3)c(-c3cc(OC)c(OC)c(OC)c3)oc2c1` [Compound A3, 2,4-dichlorobenzyl 4-((3-((5,7-dimethoxy-4-oxo-2-(3,4,5-trimethoxyphenyl)-4H-chromene-3-yl)oxy)propyl) (methyl)amino) piperidine-1-dithiocarboxylic acid] here?
Answer: The value was 18.16 ± 2.14 %.

Question: And the “Inhibition Rate (%)” value (10 μmol/L)?
Answer: The value was 97.35 ± 1.78 %.

Question: With `COc1cc(OC)c2c(=O)c(OCCCN(C)C3CCN(C(=S)SCc4ccc([N+](=O)[O-])cc4)CC3)c(-c3cc(OC)c(OC)c(OC)c3)oc2c1` [Compound A7, 4-nitrobenzyl 4-((3-((5,7-dimethoxy-4-oxo-2-(3,4,5-trimethoxyphenyl)-4H-chromene-3-yl)oxy)propyl) (methyl)amino) piperidine-1-dithiocarboxylic acid] as the molecule, how does the “Inhibition Rate (%)” value (1 μmol/L) read?
Answer: Its value is 27.70 ± 1.09 %.

Question: What about the “Inhibition Rate (%)” value (10 μmol/L) of the same molecule?
Answer: Its value is 99.35 ± 3.48 %.

Question: For `COc1cc(OC)c2c(=O)c(OCCCN(C)C3CCN(C(=S)SCc4ccccc4C)CC3)c(-c3cc(OC)c(OC)c(OC)c3)oc2c1` [Compound A6, 2-methylbenzyl 4-((3-((5,7-dimethoxy-4-oxo-2-(3,4,5-trimethoxyphenyl)-4H-chromene-3-yl)oxy)propyl) (methyl)amino) piperidine-1-dithiocarboxylic acid], which “Inhibition Rate (%)” value (1 μmol/L) is on record?
Answer: The value was 34.32 ± 2.69 %.

Question: And the “Inhibition Rate (%)” value (10 μmol/L)?
Answer: The value was 98.12 ± 2.76 %.

Question: Which results are given for `COc1cc(OC)c2c(=O)c(OCCCCN(C)C3CCN(C(=S)SCc4cccc(C)c4)CC3)c(-c3cc(OC)c(OC)c(OC)c3)oc2c1` [Compound A14, 3-methylbenzyl-4-((4-((5,7-dimethoxy-4-oxo-2-(3,4,5-trimethoxyphenyl)-4H-benzopyran-3-yl)oxy)butyl) (methyl)amino) piperidine-1-dithiocarboxylic acid]?
Answer: Inhibition Rate (%) (1 μmol/L): 96.65 ± 2.61 %; Inhibition Rate (%) (10 μmol/L): 100 ± 0.42 %

Question: With `COc1cc(OC)c2c(=O)c(OCCCCN(C)C3CCN(C(=S)SCc4cccnc4)CC3)c(-c3cc(OC)c(OC)c(OC)c3)oc2c1` [Compound A17, pyridine-3-ylmethyl-4-((4-((5,7-dimethoxy-4-oxo-2-(3,4,5-trimethoxyphenyl)-4H-benzopyran-3-yl)oxy)butyl) (methyl)amino) piperidine-1-dithiocarboxylic acid] as the molecule, how does the “Inhibition Rate (%)” value (1 μmol/L) read?
Answer: The value was 68.42 ± 2.35 %.

Question: And the “Inhibition Rate (%)” value (10 μmol/L)?
Answer: Its value is 100 ± 1.31 %.

Question: Which results are given for `COc1cc(OC)c2c(=O)c(OCCCN(C)C3CCN(C(=S)SCc4cccc(C)c4)CC3)c(-c3cc(OC)c(OC)c(OC)c3)oc2c1` [Compound A5, 3-methylbenzyl 4-((3-((5,7-dimethoxy-4-oxo-2-(3,4,5-trimethoxyphenyl)-4H-chromene-3-yl)oxy)propyl) (methyl)amino) piperidine-1-dithiocarboxylic acid]?
Answer: Inhibition Rate (%) (1 μmol/L): 12.32 ± 2.39 %; Inhibition Rate (%) (10 μmol/L): 97.52 ± 1.12 %

Question: Which “Inhibition Rate (%)” value (1 μmol/L) does the source give for `COc1cc(OC)c2c(=O)c(OCCCCN(C)C3CCN(C(=S)SCc4ccccc4F)CC3)c(-c3cc(OC)c(OC)c(OC)c3)oc2c1` [Compound A13, 2-fluorobenzyl-4-((4-((5,7-dimethoxy-4-oxo-2-(3,4,5-trimethoxyphenyl)-4H-benzopyran-3-yl)oxy)butyl) (methyl)amino) piperidine-1-dithiocarboxylic acid] here?
Answer: Its value is 46.96 ± 4.65 %.

Question: And the “Inhibition Rate (%)” value (10 μmol/L)?
Answer: Its value is 99.76 ± 1.06 %.

Question: For `Nc1ccn([C@@H]2O[C@H](CO)[C@@H](O)C2(F)F)c(=O)n1` [Gencitabine, gemcitabine, reference compound], which inhibition at 1 µM (Homo sapiens, 1 μmol/L, read-out: Inhibition Rate (%)) is on record?
Answer: The inhibition at 1 µM was 55.7 ± 2.26%.

Question: What about the inhibition at 10 µM (Homo sapiens, 10 μmol/L, read-out: Inhibition Rate (%)) of the same molecule?
Answer: Its inhibition at 10 µM is 63.5 ± 2.18%.

Question: Which “Inhibition Rate (%)” value (1 μmol/L) does the source give for `COc1cc(OC)c2c(=O)c(OCCCCN(C)C3CCN(C(=S)SCc4ccc([N+](=O)[O-])cc4)CC3)c(-c3cc(OC)c(OC)c(OC)c3)oc2c1` [Compound A16, 4-nitrobenzyl-4-((4-((5,7-dimethoxy-4-oxo-2-(3,4,5-trimethoxyphenyl)-4H-benzopyran-3-yl)oxy)butyl) (methyl)amino) piperidine-1-dithiocarboxylic acid] here?
Answer: Its value is 26.84 ± 4.36 %.

Question: What about the “Inhibition Rate (%)” value (10 μmol/L) of the same molecule?
Answer: The value was 99.85 ± 0.71 %.

Question: Which results are given for `COc1cc(OC)c2c(=O)c(OCCCCN(C)C3CCN(C(=S)SCc4ccc(Cl)cc4)CC3)c(-c3cc(OC)c(OC)c(OC)c3)oc2c1` [Compound A10, 4-chlorobenzyl-4-((4-((5,7-dimethoxy-4-oxo-2-(3,4,5-trimethoxyphenyl)-4H-benzopyran-3-yl)oxy)butyl) (methyl)amino) piperidine-1-dithiocarboxylic acid]?
Answer: Inhibition Rate (%) (1 μmol/L): 92.83 ± 3.84 %; Inhibition Rate (%) (10 μmol/L): 97.85 ± 3.35 %

Question: What does the source list for `COc1cc(OC)c2c(=O)c(OCCCN(C)C3CCN(C(=S)SCc4ccccc4F)CC3)c(-c3cc(OC)c(OC)c(OC)c3)oc2c1` [Compound A4, 2-fluorobenzyl 4-((3-((5,7-dimethoxy-4-oxo-2-(3,4,5-trimethoxyphenyl)-4H-chromene-3-yl)oxy)propyl)(methyl)amino) piperidine-1-dithiocarboxylic acid]?
Answer: Inhibition Rate (%) (1 μmol/L): 20.66 ± 1.21 %; Inhibition Rate (%) (10 μmol/L): 99.85 ± 1.64 %

Question: How did the “Inhibition Rate (%)” value (1 μmol/L) turn out when `COc1cc(OC)c2c(=O)c(OCCCN(C)C3CCN(C(=S)SCc4ccccc4Cl)CC3)c(-c3cc(OC)c(OC)c(OC)c3)oc2c1` [Compound A2, 2-chlorobenzyl-4-((3-((5,7-dimethoxy-4-oxo-2-(3,4,5-trimethoxyphenyl)-4H-chromene-3-yl)oxy)propyl)(methyl)amino)piperidine-1-dithiocarboxylic acid] was run?
Answer: The value was 25.44 ± 3.25 %.

Question: And the “Inhibition Rate (%)” value (10 μmol/L)?
Answer: Its value is 96.13 ± 3.42 %.

Question: `COc1cc(OC)c2c(=O)c(OCCCN(C)C3CCN(C(=S)SCc4cccnc4)CC3)c(-c3cc(OC)c(OC)c(OC)c3)oc2c1` [Compound A8, pyridine-3-ylmethyl 4-((3-((5,7-dimethoxy-4-oxo-2-(3,4,5-trimethoxyphenyl)-4H-chromene-3-yl)oxy)propyl) (methyl)amino) piperidine-1-dithiocarboxylic acid] was tested. Which “Inhibition Rate (%)” value (1 μmol/L) did it give?
Answer: Its value is 15.48 ± 2.74 %.

Question: And the “Inhibition Rate (%)” value (10 μmol/L)?
Answer: The value was 99.85 ± 1.64 %.

Question: Which results are given for `COc1cc(OC)c2c(=O)c(OCCCCN(C)C3CCN(C(=S)SCc4ccc(Cl)cc4Cl)CC3)c(-c3cc(OC)c(OC)c(OC)c3)oc2c1` [Compound A12, 2,4-dichlorobenzyl-4-((4-((5,7-dimethoxy-4-oxo-2-(3,4,5-trimethoxyphenyl)-4H-benzopyran-3-yl)oxy)butyl) (methyl)amino) piperidine-1-dithiocarboxylic acid]?
Answer: Inhibition Rate (%) (1 μmol/L): 98.09 ± 2.68 %; Inhibition Rate (%) (10 μmol/L): 99.28 ± 1.04 %

Question: Which “Inhibition Rate (%)” value (1 μmol/L) does the source give for `COc1cc(OC)c2c(=O)c(OCCCCN(C)C3CCN(C(=S)SCc4ccccc4Cl)CC3)c(-c3cc(OC)c(OC)c(OC)c3)oc2c1` [Compound A11, 2-chlorobenzyl-4-((4-((5,7-dimethoxy-4-oxo-2-(3,4,5-trimethoxyphenyl)-4H-benzopyran-3-yl)oxy)butyl) (methyl)amino) piperidine-1-dithiocarboxylic acid] here?
Answer: Its value is 91.00 ± 2.86 %.

Question: And the “Inhibition Rate (%)” value (10 μmol/L)?
Answer: Its value is 99.85 ± 1.64 %.

Question: What does the source list for `COc1cc(OC)c2c(=O)c(OCCCCN(C)C3CCN(C(=S)SCc4ccc(Cl)nc4)CC3)c(-c3cc(OC)c(OC)c(OC)c3)oc2c1` [Compound A18, (6-chloropyridine-3-yl) methyl-4-((4-((5,7-dimethoxy-4-oxo-2-(3,4,5-trimethoxyphenyl)-4H-benzopyran-3-yl)oxy)butyl) (methyl)amino) piperidine-1-dithiocarboxylic acid]?
Answer: Inhibition Rate (%) (1 μmol/L): 33.58 ± 1.67 %; Inhibition Rate (%) (10 μmol/L): 100 ± 0.42 %

Source: patent US12043617B2, “4-(N-methyl) aminopiperidine myricetin derivative containing dithiocarbamate, preparation method and application” (Guizhou University, priority 2019, dated 2024)
